The results in this text go back to ChEMBL document CHEMBL4152336, “Optimization of the first small-molecule relaxin/insulin-like family peptide receptor (RXFP1) agonists: Activation results in an antifibrotic gene expression profile” (Eur J Med Chem, 2018).

In assay [1] the target is T1, Relaxin receptor 1 (Homo sapiens, UniProt Q9HBX9).
T1 sequence (Q9HBX9 whole entry): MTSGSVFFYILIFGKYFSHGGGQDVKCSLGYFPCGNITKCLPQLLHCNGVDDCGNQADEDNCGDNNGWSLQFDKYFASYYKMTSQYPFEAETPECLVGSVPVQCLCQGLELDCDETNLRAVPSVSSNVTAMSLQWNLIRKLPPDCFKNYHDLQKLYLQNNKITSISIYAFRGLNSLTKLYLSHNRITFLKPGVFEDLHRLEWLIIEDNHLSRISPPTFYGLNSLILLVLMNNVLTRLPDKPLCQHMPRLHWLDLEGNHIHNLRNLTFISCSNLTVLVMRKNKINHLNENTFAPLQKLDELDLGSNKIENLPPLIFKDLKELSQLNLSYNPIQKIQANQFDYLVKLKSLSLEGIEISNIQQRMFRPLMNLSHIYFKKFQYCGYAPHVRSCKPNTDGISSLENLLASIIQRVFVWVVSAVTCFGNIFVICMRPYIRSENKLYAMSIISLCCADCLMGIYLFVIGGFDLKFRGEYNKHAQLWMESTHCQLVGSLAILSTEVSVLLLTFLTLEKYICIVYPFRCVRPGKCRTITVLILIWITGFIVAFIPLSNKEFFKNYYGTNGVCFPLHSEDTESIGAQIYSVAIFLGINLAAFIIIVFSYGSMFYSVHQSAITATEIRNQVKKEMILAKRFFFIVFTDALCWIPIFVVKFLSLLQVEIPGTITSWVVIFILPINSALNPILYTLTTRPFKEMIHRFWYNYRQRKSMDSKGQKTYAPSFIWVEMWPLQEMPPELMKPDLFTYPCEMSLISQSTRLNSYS
Format: functional, cell-based, HEK293.

For assay [2], the target named is T2, Relaxin receptor 1 (Homo sapiens) (UniProt Q9HBX9).
T2 sequence (whole entry): T1 sequence (Q9HBX9 whole entry)
Format: functional, cell-based. The settings on record: HEK293.

Calls of active or inactive are those of the source. No cut-off for these calls is given here.

As for `O=C(Nc1cccc(-c2cccc(C(F)(F)F)c2)c1)c1ccccc1NC(=O)C1CCCCC1`, in assay [1] (hek293), the EC50 (commonly the midpoint of the concentration-response curve) is listed as “Not Active”. Also, the Efficacy entry in assay [2] was “inactive”.

Consider `O=C(Cc1ccccc1)Nc1ccccc1C(=O)Nc1cccc(C(F)(F)F)c1`, for which the EC50 in assay [1] (read-out: EC50) worked out at 8.38 µM. Also, the Efficacy in assay [2] came out at 86%.

For `O=C(Nc1cccc(C(F)(F)F)c1)c1ccccc1NC(=O)c1ccccc1OC(F)(F)F`, the EC50 in assay [1] (read-out: EC50) was 1.18 µM. In assay [2], this molecule yielded an Efficacy of 96%.

`O=C(Nc1ccccc1C(=O)Nc1cccc(C(F)(F)F)c1)c1ccccc1`: in assay [1] (read-out: EC50), the EC50 was 1.32 µM. Also, the Efficacy in assay [2] came out at 64%.

`O=C(Nc1cccc(SC(F)(F)F)c1)c1ccccc1NC(=O)C1CCCCC1`: the EC50 in assay [1] (read-out: EC50) is 1.88 µM. Further, the Efficacy in assay [2] worked out at 90%.

Consider `COc1ccccc1C(=O)Nc1cccc(C(=O)Nc2cccc(C(F)(F)F)c2)c1`, for which the EC50 result in assay [1] (hek293) is reported as “Not Active”. Also, the Efficacy entry in assay [2] was “inactive”.

As to `O=C(NCc1cccc(C(F)(F)F)c1)c1ccccc1NC(=O)C1CCCCC1`, in assay [1] (hek293), the concentration for a half-maximal effect (EC50) result is given as “Not Active”. For the same molecule, the Efficacy entry in assay [2] was “inactive”.

For `COc1ccc(C(=O)Nc2ccccc2C(=O)Nc2cccc(C(F)(F)F)c2)cc1`, the EC50 in assay [1] (read-out: EC50) was 9.4 µM. The Efficacy in assay [2] stood at 71%.

As to `O=C(Nc1cccc(C(F)(F)F)c1)c1ccccc1NC(=O)C1CCCCCC1`, in assay [1] (read-out: EC50), the EC50 is 2.11 µM. Moreover, the Efficacy in assay [2] is 75%.

As to `O=C(Nc1cccc(Br)c1)c1ccccc1NC(=O)C1CCCCC1`, in assay [1] (read-out: EC50), the EC50 turned out to be 2.65 µM. In assay [2], this molecule displayed an Efficacy of 91%.

Turning to `COCCNc1ccccc1C(=O)Nc1cccc(C(F)(F)F)c1`, in assay [1] (read-out: EC50), the EC50 was found to be 59.3 µM. Further, in assay [2], the Efficacy came to 63%.

For the molecule `O=C(Nc1cccc(-c2ccccc2)c1)c1ccccc1NC(=O)C1CCCCC1`, in assay [1] (hek293), the EC50 entry is “Not Active”. In assay [2], the Efficacy entry is “inactive”.

With `CCC(CC)C(=O)Nc1ccccc1C(=O)Nc1cccc(C(F)(F)F)c1`, in assay [1] (read-out: EC50), the EC50 came to 5.29 µM. This molecule yielded an Efficacy in assay [2] of 59%.

As to `O=C(Nc1cccc([N+](=O)[O-])c1)c1ccccc1NC(=O)C1CCCCC1`, the EC50 in assay [1] (read-out: EC50) stood at 5.93 µM. For the same molecule, the Efficacy in assay [2] was found to be 93%.

Turning to `O=C(Nc1cccc(-c2ccccc2C(F)(F)F)c1)c1ccccc1NC(=O)C1CCCCC1`, the EC50 in assay [1] (read-out: EC50) came to 2.65 µM. This molecule also showed an Efficacy in assay [2] of 74%.

As to `Cc1ccc(NC(=O)c2ccccc2NC(=O)C2CCCCC2)cc1`, the EC50 in assay [1] (read-out: EC50) turned out to be 187 µM. Also, the Efficacy in assay [2] came to 32%.

On to `O=C(Nc1cccc(F)c1)c1ccccc1NC(=O)C1CCCCC1`, for which the 50% effective concentration (EC50) in assay [1] (read-out: EC50) was 13.3 µM. Moreover, the Efficacy in assay [2] worked out at 81%.

Take `COc1ccccc1C(=O)Nc1ccccc1C(=O)N(C)c1cccc(C(F)(F)F)c1`: in assay [1] (read-out: EC50), the EC50 was found to be 29.7 µM. In assay [2], this molecule returned an Efficacy of 77%.

As for `O=C(Nc1cccc(C(F)(F)F)c1)c1ccccc1NC(=O)C1CC1`, the EC50 in assay [1] (read-out: EC50) was found to be 8.38 µM. Moreover, the Efficacy in assay [2] was found to be 79%.

Take `CC(C)(C)c1cccc(NC(=O)c2ccccc2NC(=O)C2CCCCC2)c1`: the EC50 in assay [1] (read-out: EC50) was found to be 2.66 µM. In addition, the Efficacy in assay [2] came to 70%.

For the molecule `CCOc1ccccc1S(=O)(=O)Nc1ccccc1C(=O)Nc1cccc(S(=O)(=O)C(F)(F)F)c1`, the EC50 entry in assay [1] (hek293) is listed as “Not Active”. Besides, the Efficacy result in assay [2] is “inactive”.

Regarding `Cc1ccccc1C(=O)Nc1ccccc1C(=O)Nc1cccc(C(F)(F)F)c1`, the EC50 in assay [1] (read-out: EC50) was 4.2 µM. The Efficacy in assay [2] stood at 90%.

As to `CSc1cccc(NC(=O)c2ccccc2NC(=O)C2CCCCC2)c1`, the concentration giving a half-maximal response (EC50) in assay [1] (read-out: EC50) stood at 5.29 µM. This molecule also yielded an Efficacy in assay [2] of 84%.

Turning to `CCOc1ccccc1C(=O)Nc1ccccc1C(=O)Nc1cccc(C(F)(F)F)c1`, the EC50 in assay [1] (read-out: EC50) stood at 0.265 µM. The Efficacy in assay [2] is 94%.

Consider `COc1cccc(OC)c1C(=O)Nc1ccccc1C(=O)Nc1cccc(C(F)(F)F)c1`, for which the concentration giving a half-maximal response (EC50) in assay [1] (read-out: EC50) amounted to 7.47 µM. The molecule also came in with an Efficacy in assay [2] of 42%.

Consider `CC(C)Oc1ccccc1C(=O)Nc1ccccc1C(=O)Nc1cccc(C(F)(F)F)c1`, for which the EC50 in assay [1] (read-out: EC50) turned out to be 0.471 µM. In assay [2], this molecule yielded an Efficacy of 99%.

For `COc1cccc(NC(=O)c2ccccc2NC(=O)C2CCCCC2)c1`, the EC50 in assay [1] (read-out: EC50) came to 37.4 µM. In assay [2], this molecule had an Efficacy of 74%.
